Patent publication US20200017496A1 (priority 2017, published 2020)
Where two headings read alike, the source gives them in different places.

Assays:
Test in all cases: MIC of compounds alone and combined with antibacterials, broth microdilution (CLSI)
Assay type in all cases: cell-based
[1] = tested on: Citrobacter koseri (CKR) isolates; conditions: for MIC: Citrobacter koseri, read-out: MIC
Summary of the method: (§1)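 First, log-phase suspensions are brought to a final 5·10^5 CFU/mL in cation-adjusted Mueller-Hinton broth. Then plates with compound, antibacterial, or both incubate 16-20 h at 35° C under ambient air. Finally, visual inspection gives the lowest growth-preventing concentration for each agent.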

[2] = tested on: Enterobacter aerogenes (EAE) isolates; conditions: for MIC: Klebsiella aerogenes, read-out: MIC
Summary of the method: as §1

[3] = tested on: Escherichia coli (ECO) isolates
Summary of the method: as §1

C=CC1=C(C(=O)O)N2C(=O)[C@@H](NC(=O)/C(=N\OCC(=O)O)c3csc(N)n3)[C@H]2SC1 [FIX, Cefixime]
<0.25 µg/mL: MIC ATB in combination ([3]; ECO UFR19, AF1 @ 8 μg/mL)
16 µg/mL: MIC ATB in combination ([2]; EAE 49469, AF1 @ 8 μg/mL) | MIC ATB in combination ([2]; EAE UFR202, AF1 @ 4 μg/mL) | MIC ([2]; strain EAE UFR199 (TEM-1b, SHV-12, KPC-2, OXA-9), CLA @ 4 μg/ml+ ATB) | MIC ATB in combination ([3]; ECO UFR17, AF1 @ 8 μg/mL) | MIC ATB in combination ([3]; ECO UFR18, AF1 @ 4 μg/mL) | MIC ATB in combination ([3]; ECO UFR19, AF1 @ 4 μg/mL)
0.5 µg/mL: MIC ATB in combination ([1]; CKO UFR149, AF1 @ 4 μg/mL) | MIC ([1]; strain CKO UFR149 (OXA-48), ATB alone) | MIC ATB in combination ([2]; EAE UFR213, AF1 @ 8 μg/mL) | MIC ATB in combination ([3]; ECO UFR18, AF1 @ 8 μg/mL)
<=0.25 μg/mL: MIC ATB in combination ([1]; CKO ROU, AF1 @ 4 μg/mL) | MIC ATB in combination ([1]; CKO ROU, AF1 @ 8 μg/mL) | MIC ATB in combination ([1]; CKO UFR149, AF1 @ 8 μg/mL) | MIC ATB in combination ([2]; EAE UFR201, AF1 @ 4 μg/mL) | MIC ATB in combination ([2]; EAE UFR201, AF1 @ 8 μg/mL) | MIC ATB in combination ([3]; ECO 4133, AF1 @ 4 μg/mL) | MIC ATB in combination ([3]; ECO 4133, AF1 @ 8 μg/mL) | MIC ATB in combination ([3]; ECO 5302, AF1 @ 4 μg/mL) | MIC ATB in combination ([3]; ECO 5302, AF1 @ 8 μg/mL) | MIC ATB in combination ([3]; ECO 131119, AF1 @ 4 μg/mL) | MIC ATB in combination ([3]; ECO 131119, AF1 @ 8 μg/mL) | MIC ATB in combination ([3]; ECO 180070, AF1 @ 4 μg/mL) | MIC ATB in combination ([3]; ECO 180070, AF1 @ 8 μg/mL) | MIC ATB in combination ([3]; ECO 190314, AF1 @ 4 μg/mL) | MIC ATB in combination ([3]; ECO 190314, AF1 @ 8 μg/mL) | MIC ATB in combination ([3]; ECO 190317, AF1 @ 4 μg/mL) | MIC ATB in combination ([3]; ECO 190317, AF1 @ 8 μg/mL) | MIC ATB in combination ([3]; ECO 190549, AF1 @ 4 μg/mL) | MIC ATB in combination ([3]; ECO 190549, AF1 @ 8 μg/mL) | MIC ATB in combination ([3]; ECO 200159, AF1 @ 4 μg/mL) | MIC ATB in combination ([3]; ECO 200159, AF1 @ 8 μg/mL) | MIC ATB in combination ([3]; ECO 200259, AF1 @ 4 μg/mL) | MIC ATB in combination ([3]; ECO 200259, AF1 @ 8 μg/mL) | MIC ATB in combination ([3]; ECO 200344, AF1 @ 4 μg/mL) | MIC ATB in combination ([3]; ECO 200344, AF1 @ 8 μg/mL) | MIC ATB in combination ([3]; ECO 260096, AF1 @ 4 μg/mL) | MIC ATB in combination ([3]; ECO 260096, AF1 @ 8 μg/mL) | MIC ATB in combination ([3]; ECO 260304, AF1 @ 4 μg/mL) | MIC ATB in combination ([3]; ECO 260304, AF1 @ 8 μg/mL) | MIC ATB in combination ([3]; ECO 260508, AF1 @ 4 μg/mL) | MIC ATB in combination ([3]; ECO 260508, AF1 @ 8 μg/mL) | MIC ATB in combination ([3]; ECO RGN238, AF1 @ 4 μg/mL) | MIC ATB in combination ([3]; ECO RGN238, AF1 @ 8 μg/mL) | MIC ATB in combination ([3]; ECO UFR15, AF1 @ 4 μg/mL) | MIC ATB in combination ([3]; ECO UFR15, AF1 @ 8 μg/mL) | MIC ATB in combination ([3]; ECO UFR16, AF1 @ 4 μg/mL) | MIC ATB in combination ([3]; ECO UFR16, AF1 @ 8 μg/mL)
0.25 µg/mL: MIC ATB in combination ([2]; EAE UFR199, AF1 @ 8 μg/mL)
2 µg/mL: MIC ATB in combination ([1]; CKO UFR150, AF1 @ 4 μg/mL) | MIC ([1]; strain CKO ROU (TEM-1, SHV-12, CTX-M-15, OXA-1, OXA-48), CLA @ 4 μg/ml+ ATB) | MIC ([1]; strain CKO UFR150 (TEM-1, OXA-48), ATB alone) | MIC ([1]; strain CKO UFR150 (TEM-1, OXA-48), CLA @ 4 μg/ml+ ATB)
4 µg/mL: MIC ATB in combination ([2]; EAE 200261, AF1 @ 8 μg/mL) | MIC ATB in combination ([2]; EAE UFR202, AF1 @ 8 μg/mL)
> 128 µg/mL: MIC ([2]; strain EAE 49469 (AmpC), ATB alone) | MIC ([2]; strain EAE 49469 (AmpC), CLA @ 4 μg/ml+ ATB) | MIC ([2]; strain EAE 200261 (TEM-x, AmpC), ATB alone) | MIC ([2]; strain EAE 200261 (TEM-x, AmpC), CLA @ 4 μg/ml+ ATB) | MIC ([2]; strain EAE UFR201 (TEM-1, SHV-12, CTX-M-15), ATB alone) | MIC ([2]; strain EAE UFR202 (TEM-24), ATB alone) | MIC ([2]; strain EAE UFR202 (TEM-24), CLA @ 4 μg/ml+ ATB) | MIC ([2]; strain EAE UFR213 (TEM-24), ATB alone) | MIC ([2]; strain EAE UFR213 (TEM-24), CLA @ 4 μg/ml+ ATB)
≤ 0.25 µg/mL: MIC ([2]; strain EAE UFR201 (TEM-1, SHV-12, CTX-M-15), CLA @ 4 μg/ml+ ATB)
>128 µg/mL: MIC ATB in combination [3]
0.031 µg/mL: MIC ATB in combination ([3]; ECO 190457, AF1 @ 8 μg/mL)
1 µg/mL: MIC ATB in combination ([1]; CKO UFR150, AF1 @ 8 μg/mL) | MIC ([1]; strain CKO ROU (TEM-1, SHV-12, CTX-M-15, OXA-1, OXA-48), ATB alone) | MIC ([1]; strain CKO UFR149 (OXA-48), CLA @ 4 μg/ml+ ATB) | MIC ATB in combination ([2]; EAE UFR199, AF1 @ 4 μg/mL) | MIC ATB in combination ([2]; EAE UFR213, AF1 @ 4 μg/mL)
> 1020 µg/mL: MIC ([2]; EAE UFR199, alone) | MIC ([2]; strain EAE UFR199 (TEM-1b, SHV-12, KPC-2, OXA-9), ATB alone)
32 µg/mL: MIC ATB in combination ([2]; EAE 49469, AF1 @ 4 μg/mL) | MIC ATB in combination ([2]; EAE 200261, AF1 @ 4 μg/mL)
